Tests used:
human GST-DYRK1A = molecular target: T1, human GST-DYRK1A (Homo sapiens, UniProt Q13627); test: GST-DYRK1A enzyme inhibition, ADP-Glo kinase assay; assay type: biochemical; settings: ATP 10 μM, GST-DYRK1A full length, read-out: DYRK1 IC50
T1 construct: purified human GST-DYRK1A (full length, Thermo Scientifics) enzyme; purchased Thermo Scientifics
Method in brief: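 Full-length human GST-DYRK1A (10 ng) with 10 μM ATP and specific substrate in 40 mM Tris-HCl pH 7.4, 20 mM MgCl2, 0.5 mg/mL BSA, 50 μM DTT, 1 h at 25 °C. ADP formation read by ADP-Glo luminescence relative to solvent control; IC50 from three data sets.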

LRRK2 = LRRK2 (Homo sapiens, UniProt Q5S007); test: LRRK2 enzyme inhibition, ADP-Glo kinase assay; assay type: biochemical; set-up: purchased Invitrogen PR8604B; settings: ATP 10 μM
Method in brief: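 Purified human LRRK2 (25 ng) with 10 μM ATP and 0.2 μg substrate in 40 mM Tris-HCl pH 7.4, 20 mM MgCl2, 0.5 mg/mL BSA, 50 μM DTT, 2 h at 25° C. ADP-Glo luminescence; 12-point compound series from 50 μM final; IC50 relative to solvent control.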

human GST-CLK1 = molecular target: T2, human GST-CLK1 (Homo sapiens, UniProt P49759); test: GST-CLK1 enzyme inhibition, ADP-Glo kinase assay; assay type: biochemical; settings: ATP 10 μM, GST-CLK1 129-end
T2 construct: purified human GST-CLK1 (129-end, SignalChem) enzyme; purchased SignalChem
Method in brief: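 Human GST-CLK1 (129-end, 3 ng) reacted with substrate and 10 μM ATP for 1 h at 25° C in 40 mM Tris-HCl pH 7.4, 20 mM MgCl2, 0.5 mg/mL BSA, 50 μM DTT. ADP-Glo luminescence was normalised to solvent control; IC50 (nM) from 3 data sets.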

SHP-77 = test: Inhibition of proliferation of SHP-77 cancer cells (Cell Titer-Glo); assay type: cell-based; settings: Homo sapiens, SHP77, 72 hours
Protocol: To evaluate an inhibitory effect on the proliferation of cancer cells, each of an MDA-MB-231 cell line (Korean Cell Line Bank #30026) and an MDA-MB-468 cell line as triple-negative breast cancer cell lines, and SHP-77 (ATCC #CRL-2195) as a small-cell lung cancer cell line was cultured in DMEM (HyClone #SH30243) or an RPMI medium (HyClone #SH3027.01) to analyze a cell growth rate. More specifically, a cell line was plated on a 96-well flat bottom plate (Corning #3903) at a density of 2,000 cells/100 μL per well, and then treated with 11 concentrations of the Example compound, a solution of which was diluted 3-fold so that a final concentration of the compound was 10.000000, 3.333333, 1.111111, 0.370370, 0.123457, 0.041152, 0.013717, 0.004572, 0.001524, 0.000508, and 0.000169 μM. After 72 hours, each of the culture media was treated with 100 μL of Cell Titer-Glo (Promega G7573), and then cultured at room temperature for 10 minutes. Then, a degree of luminescence was measured using a microplate reader. A GI50 value was calculated from the measured degree of luminescence using Prism (Version 8.2 GraphPad) software.

MDA-MB-231 cell line = test: Inhibition of proliferation of MDA-MB-231 cancer cells (Cell Titer-Glo); assay type: cell-based; settings: Homo sapiens, 72 hours
Method in brief: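 Step one, seed 2,000 cells per well in DMEM or RPMI. Step two, add compound at 11 final concentrations (10 to 0.000169 μM, 3-fold series) and culture for 72 hours. Step three, add Cell Titer-Glo, wait 10 min at room temperature, read luminescence and calculate GI50.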

LRRK2 (G2019S) = LRRK2 (G2019S) (Homo sapiens, UniProt Q5S007, G2019S); test: LRRK2 G2019S enzyme inhibition, ADP-Glo kinase assay; assay type: biochemical; set-up: purchased SignalChem L10-12GG; settings: ATP 25 μM
Method in brief: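 Purified human LRRK2 G2019S (16 ng) with 25 μM ATP and 0.2 μg substrate, 2 h at 25° C. in Tris-HCl pH 7.4, MgCl2, BSA, DTT buffer; compounds at 12 final concentrations, 50 μM down to 0.000001024 μM. ADP-Glo luminescence versus solvent control gave IC50.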

Sequence of LRRK2 (Q5S007 970-2527 limits assumed): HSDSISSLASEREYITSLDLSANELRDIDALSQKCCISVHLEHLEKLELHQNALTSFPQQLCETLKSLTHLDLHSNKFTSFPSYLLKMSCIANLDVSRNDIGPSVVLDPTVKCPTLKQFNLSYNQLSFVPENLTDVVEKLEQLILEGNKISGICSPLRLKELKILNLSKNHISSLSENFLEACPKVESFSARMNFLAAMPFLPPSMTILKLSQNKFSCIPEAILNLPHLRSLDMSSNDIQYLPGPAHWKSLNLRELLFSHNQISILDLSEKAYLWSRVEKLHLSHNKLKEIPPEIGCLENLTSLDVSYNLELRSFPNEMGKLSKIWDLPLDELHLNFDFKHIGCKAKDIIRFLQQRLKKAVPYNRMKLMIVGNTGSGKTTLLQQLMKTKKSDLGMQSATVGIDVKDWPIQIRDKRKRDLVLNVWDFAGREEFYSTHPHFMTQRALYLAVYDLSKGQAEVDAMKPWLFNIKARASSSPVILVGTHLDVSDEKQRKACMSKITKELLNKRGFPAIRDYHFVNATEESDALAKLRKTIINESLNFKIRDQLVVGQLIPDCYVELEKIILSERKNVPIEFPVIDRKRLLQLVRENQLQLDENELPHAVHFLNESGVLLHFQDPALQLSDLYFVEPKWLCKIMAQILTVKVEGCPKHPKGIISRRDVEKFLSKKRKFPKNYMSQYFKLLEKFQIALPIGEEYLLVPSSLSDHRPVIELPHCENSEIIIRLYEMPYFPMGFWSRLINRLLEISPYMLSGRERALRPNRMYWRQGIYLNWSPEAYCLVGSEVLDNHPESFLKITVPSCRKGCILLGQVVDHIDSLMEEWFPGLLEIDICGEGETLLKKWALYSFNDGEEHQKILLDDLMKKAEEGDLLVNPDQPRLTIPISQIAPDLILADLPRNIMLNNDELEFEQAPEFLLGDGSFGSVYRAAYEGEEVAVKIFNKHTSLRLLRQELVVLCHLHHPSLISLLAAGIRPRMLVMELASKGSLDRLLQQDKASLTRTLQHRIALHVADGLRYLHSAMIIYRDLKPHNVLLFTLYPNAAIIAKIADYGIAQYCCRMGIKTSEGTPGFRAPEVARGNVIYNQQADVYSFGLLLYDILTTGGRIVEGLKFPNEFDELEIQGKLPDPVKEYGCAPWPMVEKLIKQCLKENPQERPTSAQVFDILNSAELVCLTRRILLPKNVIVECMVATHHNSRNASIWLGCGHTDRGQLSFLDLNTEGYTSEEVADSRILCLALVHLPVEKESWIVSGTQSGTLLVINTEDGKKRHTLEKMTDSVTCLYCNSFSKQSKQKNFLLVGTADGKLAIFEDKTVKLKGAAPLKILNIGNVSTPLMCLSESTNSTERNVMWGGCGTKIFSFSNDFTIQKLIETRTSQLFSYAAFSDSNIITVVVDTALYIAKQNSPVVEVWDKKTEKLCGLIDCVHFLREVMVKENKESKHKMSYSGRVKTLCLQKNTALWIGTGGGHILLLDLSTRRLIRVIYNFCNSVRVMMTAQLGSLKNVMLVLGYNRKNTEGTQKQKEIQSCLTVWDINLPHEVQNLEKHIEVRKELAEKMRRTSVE
Sequence of LRRK2 (G2019S) (Q5S007 970-2527 G2019S limits assumed): as the sequence (Q5S007 970-2527 limits assumed) above, with G1050S counted along it
T2 sequence (P49759 129-484 limits assumed): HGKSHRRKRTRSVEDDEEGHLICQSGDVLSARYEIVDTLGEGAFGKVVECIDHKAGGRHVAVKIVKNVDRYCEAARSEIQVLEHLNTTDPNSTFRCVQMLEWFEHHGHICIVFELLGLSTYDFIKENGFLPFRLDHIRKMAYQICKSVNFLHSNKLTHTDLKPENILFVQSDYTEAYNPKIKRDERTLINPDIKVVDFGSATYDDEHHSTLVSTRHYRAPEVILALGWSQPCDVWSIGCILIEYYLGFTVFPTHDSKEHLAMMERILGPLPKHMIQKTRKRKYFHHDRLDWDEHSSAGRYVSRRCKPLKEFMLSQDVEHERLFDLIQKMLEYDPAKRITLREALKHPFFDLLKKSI

Row | IC50 (human GST-DYRK1A) [nM] | IC50 (LRRK2) [nM] | IC50 (human GST-CLK1) [nM] | GI50 (SHP-77) [nM] | GI50 (MDA-MB-231 cell line) [nM] | IC50 (LRRK2 (G2019S)) [nM] | Structure (SMILES)
1 | 301 to 1000 | < 100 | 301 to 1000 | < 50 | < 50 | – | COc1cc(S(=O)(=O)N2CCC(N3CCOCC3)CC2)ccc1Nc1nc(NCC2CC2)c2c(C#N)c[nH]c2n1 [Example 92, 4-((cyclopropylmethyl)amino)-2-((2-methoxy-4-((4-morpholinopiperidin-1-yl)sulfonyl)phenyl)amino)-7H-pyrrolo[2,3-d]pyrimidine-5-carbonitrile]
2 | 301 to 1000 | – | 301 to 1000 | 301 to 1000 | 301 to 1000 | – | COc1cc(S(=O)(=O)N2CCC(N3CCOCC3)CC2)ccc1Nc1nc(NCC2CCCC2)c2c(C(F)(F)F)c[nH]c2n1 [Example 195, N^4-(cyclopentylmethyl)-N^2-(2-methoxy-4-((4-morpholinopiperidin-1-yl)sulfonyl)phenyl)-5-(trifluoromethyl)-7H-pyrrolo[2,3-d]pyrimidine-2,4-diamine]
3 | 301 to 1000 | 101 to 300 | 301 to 1000 | 301 to 1000 | 301 to 1000 | – | COc1cc(S(=O)(=O)N2CCOCC2)ccc1Nc1nc(NC2CCCC2)c2c(C(F)(F)F)c[nH]c2n1 [Example 186, N^4-cyclopentyl-N^2-(2-methoxy-4-(morpholinosulfonyl)phenyl)-5-(trifluoromethyl)-7H-pyrrolo[2,3-d]pyrimidine-2,4-diamine]
4 | 301 to 1000 | < 100 | 301 to 1000 | 301 to 1000 | 301 to 1000 | – | COc1cc(S(=O)(=O)N2CCC(N3CCOCC3)CC2)ccc1Nc1nc(NC2CCCC2)c2c(C(F)(F)F)c[nH]c2n1 [Example 187, N^4-cyclopentyl-N^2-(2-methoxy-4-((4-morpholinopiperidin-1-yl)sulfonyl)phenyl)-5-(trifluoromethyl)-7H-pyrrolo[2,3-d]pyrimidine-2,4-diamine]
5 | 301 to 1000 | – | 301 to 1000 | < 50 | < 50 | – | CC[C@@H](C)Nc1nc(Nc2ccc(S(=O)(=O)N3CCC(N4CCOCC4)CC3)cc2OC)nc2[nH]cc(C#N)c12 [Example 86, (R)-4-(sec-butylamino)-2-((2-methoxy-4-((4-morpholinopiperidin-1-yl)sulfonyl)phenyl)amino)-7H-pyrrolo[2,3-d]pyrimidine-5-carbonitrile]
6 | 301 to 1000 | – | 301 to 1000 | 301 to 1000 | 301 to 1000 | – | CCCCNc1nc(Nc2ccc(S(=O)(=O)N3CCOCC3)cc2OC)nc2[nH]cc(C(F)(F)F)c12 [Example 207, N^4-butyl-N^2-(2-methoxy-4-(morpholinosulfonyl)phenyl)-5-(trifluoromethyl)-7H-pyrrolo[2,3-d]pyrimidine-2,4-diamine]
7 | 301 to 1000 | < 100 | 101 to 300 | < 50 | < 50 | – | COCC(C)(C)Nc1nc(Nc2ccc(S(=O)(=O)N3CCC(N4CCOCC4)CC3)cc2OC)nc2[nH]cc(C#N)c12 [Example 93, 4-((1-methoxy-2-methylpropan-2-yl)amino)-2-((2-methoxy-4-((4-morpholinopiperidin-1-yl)sulfonyl)phenyl)amino)-7H-pyrrolo[2,3-d]pyrimidine-5-carbonitrile]
8 | 301 to 1000 | – | 301 to 1000 | 301 to 1000 | 301 to 1000 | – | COc1cc(S(=O)(=O)N2CCOCC2)ccc1Nc1nc(NCC2CCC2)c2c(C(F)(F)F)c[nH]c2n1 [Example 200, N^4-(cyclobutylmethyl)-N^2-(2-methoxy-4-(morpholinosulfonyl)phenyl)-5-(trifluoromethyl)-7H-pyrrolo[2,3-d]pyrimidine-2,4-diamine]
9 | 301 to 1000 | – | 101 to 300 | 301 to 1000 | 301 to 1000 | – | COc1cc(S(=O)(=O)N2CCOCC2)ccc1Nc1nc(NCC2CC2)c2c(C(F)(F)F)c[nH]c2n1 [Example 203, N^4-(cyclopropylmethyl)-N^2-(2-methoxy-4-(morpholinosulfonyl)phenyl)-5-(trifluoromethyl)-7H-pyrrolo[2,3-d]pyrimidine-2,4-diamine]

Continued, molecule first:

Row | Structure (SMILES) | IC50 (human GST-DYRK1A) [nM] | IC50 (LRRK2) [nM] | IC50 (human GST-CLK1) [nM] | GI50 (SHP-77) [nM] | GI50 (MDA-MB-231 cell line) [nM] | IC50 (LRRK2 (G2019S)) [nM]
10 | COCCNc1nc(Nc2ccc(S(=O)(=O)N3CCOCC3)cc2OC)nc2[nH]cc(C#N)c12 [Example 69, 2-((2-methoxy-4-(morpholinosulfonyl)phenyl)amino)-4-((2-methoxyethyl)amino)-7H-pyrrolo[2,3-d]pyrimidine-5-carbonitrile] | 301 to 1000 | < 100 | 301 to 1000 | 301 to 1000 | 301 to 1000 | < 100
11 | COc1cc(S(=O)(=O)N2CCOCC2)ccc1Nc1nc(N[C@@H]2CCOC2)c2c(C#N)c[nH]c2n1 [Example 74, (R)-2-((2-methoxy-4-(morpholinosulfonyl)phenyl)amino)-4-((tetrahydrofuran-3-yl)amino)-7H-pyrrolo[2,3-d]pyrimidine-5-carbonitrile] | 301 to 1000 | – | 301 to 1000 | 101 to 300 | 101 to 300 | –
12 | COc1cc(S(=O)(=O)N2CCOCC2)ccc1Nc1nc(NCC2CCCC2)c2c(C#N)c[nH]c2n1 [Example 80, 4-(cyclo(pentylmethyl)amino)-2-((2-methoxy-4-(morpholinosulfonyl)phenyl)amino)-7H-pyrrolo[2,3-d]pyrimidine-5-carbonitrile] | 301 to 1000 | – | 301 to 1000 | 51 to 100 | 101 to 300 | < 100
13 | COCC(C)(C)Nc1nc(Nc2ccc(S(=O)(=O)N3CCOCC3)cc2OC)nc2[nH]cc(C#N)c12 [Example 78, 4-((1-methoxy-2-methylpropan-2-yl)amino)-2-((2-methoxy-4-(morpholinosulfonyl)phenyl)amino)-7H-pyrrolo[2,3-d]pyrimidine-5-carbonitrile] | 301 to 1000 | < 100 | 301 to 1000 | < 50 | < 50 | –
14 | COc1cc(S(=O)(=O)N2CCC(N3CCOCC3)CC2)ccc1Nc1nc(NCC(C)C)c2c(C#N)c[nH]c2n1 [Example 84, 4-(isobutylamino)-2-((2-methoxy-4-((4-morpholinopiperidin-1-yl)sulfonyl)phenyl)amino)-7H-pyrrolo[2,3-d]pyrimidine-5-carbonitrile] | 301 to 1000 | – | 301 to 1000 | < 50 | < 50 | < 100
15 | COc1cc(S(=O)(=O)N2CCOCC2)ccc1Nc1nc(NCC2CCC2)c2c(C#N)c[nH]c2n1 [Example 79, 4-((cyclobutylmethyl)amino)-2-((2-methoxy-4-(morpholinosulfonyl)phenyl)amino)-7H-pyrrolo[2,3-d]pyrimidine-5-carbonitrile] | 301 to 1000 | – | 301 to 1000 | < 50 | 51 to 100 | –
16 | COc1cc(S(=O)(=O)N2CCOCC2)ccc1Nc1nc(NCC(C)C)c2c(C#N)c[nH]c2n1 [Example 65, 4-(isobutylamino)-2-((2-methoxy-4-(morpholinosulfonyl)phenyl)amino)-7H-pyrrolo[2,3-d]pyrimidine-5-carbonitrile] | 301 to 1000 | – | 301 to 1000 | < 50 | < 50 | < 100
17 | CC[C@H](C)Nc1nc(Nc2ccc(S(=O)(=O)N3CCOCC3)cc2OC)nc2[nH]cc(C#N)c12 [Example 68, (S)-4-(sec-butylamino)-2-((2-methoxy-4-(morpholinosulfonyl)phenyl)amino)-7H-pyrrolo[2,3-d]pyrimidine-5-carbonitrile] | 301 to 1000 | – | 301 to 1000 | 101 to 300 | 101 to 300 | –
